Source: ChEMBL document CHEMBL5465560, “Selectivity Literature for EUbOPEN Chemogenomic Library” (2024)
Values belong to the compound of their own block, whether it stands above or below them.

Columns and labels:
[1] = target: Phosphatidylinositol 4,5-bisphosphate 3-kinase catalytic subunit beta isoform (Homo sapiens) (UniProt P42338); assay: Selectivity interaction (Ambit KINOMEscan and KiNATiv profiling in Jurkat cells) EUB0000090b PIK3CB; format: cell-based; settings: at 1 µM
[2] = target: Tyrosine-protein kinase Fes/Fps (Homo sapiens) (UniProt P07332); assay: Selectivity interaction (KinomeScan (DiscoverX)) EUB0000618a FES; settings: at 10 µM
[3] = target: Mitogen-activated protein kinase 3 (Homo sapiens, UniProt P27361); assay: Selectivity interaction (KinomeScan (DiscoverX)) EUB0000045b MAPK3
Mitogen-activated protein kinase 3, sequence (P27361 whole entry): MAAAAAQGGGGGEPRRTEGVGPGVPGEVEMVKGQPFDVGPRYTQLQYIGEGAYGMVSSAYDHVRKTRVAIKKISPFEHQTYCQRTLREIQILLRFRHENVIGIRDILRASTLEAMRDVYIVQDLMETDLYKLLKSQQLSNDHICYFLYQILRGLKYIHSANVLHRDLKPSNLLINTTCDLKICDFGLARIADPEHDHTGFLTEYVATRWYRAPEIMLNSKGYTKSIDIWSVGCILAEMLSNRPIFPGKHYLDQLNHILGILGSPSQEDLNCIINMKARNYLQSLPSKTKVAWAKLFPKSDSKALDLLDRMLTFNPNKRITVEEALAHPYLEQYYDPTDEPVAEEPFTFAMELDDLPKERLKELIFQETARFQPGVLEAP

[4] = target: T1, Serine/threonine-protein kinase Nek2 (Homo sapiens) (UniProt P51955); settings: at 10 µM
T1 sequence (whole entry): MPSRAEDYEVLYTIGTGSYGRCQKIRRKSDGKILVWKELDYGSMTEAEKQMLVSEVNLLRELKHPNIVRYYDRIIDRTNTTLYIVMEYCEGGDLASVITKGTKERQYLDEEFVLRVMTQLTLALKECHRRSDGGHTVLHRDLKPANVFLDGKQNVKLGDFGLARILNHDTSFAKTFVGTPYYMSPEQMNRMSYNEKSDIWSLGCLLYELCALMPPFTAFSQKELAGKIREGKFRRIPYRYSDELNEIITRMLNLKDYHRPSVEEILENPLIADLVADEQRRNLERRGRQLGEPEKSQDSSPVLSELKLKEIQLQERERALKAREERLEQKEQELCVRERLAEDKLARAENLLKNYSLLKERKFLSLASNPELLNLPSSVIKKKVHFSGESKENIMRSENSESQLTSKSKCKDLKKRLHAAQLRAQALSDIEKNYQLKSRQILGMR

[5] = target: Tyrosine-protein kinase Blk (Homo sapiens) (UniProt P51451); assay: Selectivity interaction (Upstate Kinase Profiler service (Millipore)) EUB0000056c BLK; settings: at 1 µM
Tyrosine-protein kinase Blk (Homo sapiens), sequence (P51451 2-505 limits assumed): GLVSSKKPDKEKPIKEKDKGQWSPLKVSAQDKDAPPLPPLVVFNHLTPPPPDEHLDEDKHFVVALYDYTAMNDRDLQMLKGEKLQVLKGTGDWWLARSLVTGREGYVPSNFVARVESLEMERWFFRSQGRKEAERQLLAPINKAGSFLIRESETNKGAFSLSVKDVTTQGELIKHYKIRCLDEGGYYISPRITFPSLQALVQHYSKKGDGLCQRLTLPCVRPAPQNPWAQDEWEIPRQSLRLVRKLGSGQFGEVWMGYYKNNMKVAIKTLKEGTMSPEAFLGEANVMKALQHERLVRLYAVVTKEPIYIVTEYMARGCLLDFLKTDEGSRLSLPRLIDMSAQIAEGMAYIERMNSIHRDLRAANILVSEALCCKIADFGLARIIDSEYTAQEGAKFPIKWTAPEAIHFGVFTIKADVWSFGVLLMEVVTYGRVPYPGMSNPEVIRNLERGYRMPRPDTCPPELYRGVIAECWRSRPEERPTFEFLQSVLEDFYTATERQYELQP

[6] = target: Serine/threonine-protein kinase 10 (Homo sapiens) (UniProt O94804); assay: Selectivity interaction (ActivX KiNativ screen (kinase selectivity in THP-1 cell lysates)) EUB0000639a STK10; format: subcellular; settings: lysate, at 0.2 µM
Serine/threonine-protein kinase 10 (Homo sapiens), sequence (O94804 whole entry, looked up): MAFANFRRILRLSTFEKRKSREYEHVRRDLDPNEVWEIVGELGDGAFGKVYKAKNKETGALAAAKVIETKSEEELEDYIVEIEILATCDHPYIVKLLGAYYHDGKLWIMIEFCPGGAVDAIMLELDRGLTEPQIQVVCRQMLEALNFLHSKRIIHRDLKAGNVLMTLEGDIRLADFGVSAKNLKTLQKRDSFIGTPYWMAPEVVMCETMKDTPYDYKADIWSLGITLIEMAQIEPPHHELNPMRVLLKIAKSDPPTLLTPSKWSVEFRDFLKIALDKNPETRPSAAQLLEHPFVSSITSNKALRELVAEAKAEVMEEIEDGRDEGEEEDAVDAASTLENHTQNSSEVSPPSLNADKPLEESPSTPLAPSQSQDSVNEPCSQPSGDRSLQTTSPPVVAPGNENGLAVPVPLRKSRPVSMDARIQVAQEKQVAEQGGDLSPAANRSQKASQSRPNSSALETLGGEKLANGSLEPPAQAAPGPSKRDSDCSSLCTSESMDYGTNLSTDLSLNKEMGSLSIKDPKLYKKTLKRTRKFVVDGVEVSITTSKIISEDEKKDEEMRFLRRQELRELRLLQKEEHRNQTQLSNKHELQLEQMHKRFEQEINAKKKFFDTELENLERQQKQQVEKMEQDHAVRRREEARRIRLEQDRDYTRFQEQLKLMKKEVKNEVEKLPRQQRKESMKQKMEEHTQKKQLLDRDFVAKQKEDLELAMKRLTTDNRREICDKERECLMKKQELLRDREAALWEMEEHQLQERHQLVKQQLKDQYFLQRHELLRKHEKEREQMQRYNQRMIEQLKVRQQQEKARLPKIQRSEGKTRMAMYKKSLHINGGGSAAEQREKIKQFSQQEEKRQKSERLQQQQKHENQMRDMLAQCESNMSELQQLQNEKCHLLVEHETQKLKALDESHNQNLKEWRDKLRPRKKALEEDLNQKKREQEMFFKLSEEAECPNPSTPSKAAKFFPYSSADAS

[7] = target: Mitogen-activated protein kinase kinase kinase 20 (Homo sapiens) (UniProt Q9NYL2); assay: Selectivity interaction (KinomeScan (DiscoverX)) EUB0000092b MAP3K20; settings: at 10 µM
Mitogen-activated protein kinase kinase kinase 20 (Homo sapiens), sequence (Q9NYL2 2-800 limits assumed): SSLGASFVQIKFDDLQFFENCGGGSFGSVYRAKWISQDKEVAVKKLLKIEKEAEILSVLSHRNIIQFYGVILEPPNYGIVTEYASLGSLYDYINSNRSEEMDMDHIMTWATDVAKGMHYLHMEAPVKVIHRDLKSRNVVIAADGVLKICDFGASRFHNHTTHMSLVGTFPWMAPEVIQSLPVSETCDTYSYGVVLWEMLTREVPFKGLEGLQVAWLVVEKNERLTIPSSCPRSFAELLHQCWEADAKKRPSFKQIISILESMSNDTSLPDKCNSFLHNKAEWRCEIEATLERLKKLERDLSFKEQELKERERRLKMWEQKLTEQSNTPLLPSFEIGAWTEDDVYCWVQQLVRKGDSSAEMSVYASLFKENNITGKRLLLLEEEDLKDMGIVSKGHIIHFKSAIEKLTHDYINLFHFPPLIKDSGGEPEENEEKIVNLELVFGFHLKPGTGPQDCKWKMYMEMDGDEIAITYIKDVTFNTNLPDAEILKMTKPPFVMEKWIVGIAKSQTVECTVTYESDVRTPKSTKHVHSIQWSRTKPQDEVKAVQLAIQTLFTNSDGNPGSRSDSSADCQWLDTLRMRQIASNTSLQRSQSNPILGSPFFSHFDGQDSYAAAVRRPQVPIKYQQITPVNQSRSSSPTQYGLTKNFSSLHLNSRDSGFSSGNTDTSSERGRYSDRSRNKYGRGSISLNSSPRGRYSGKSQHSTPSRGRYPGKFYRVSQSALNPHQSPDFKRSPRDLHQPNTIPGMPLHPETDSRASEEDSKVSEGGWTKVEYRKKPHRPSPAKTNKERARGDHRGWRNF

[8] = target: T2, Mitogen-activated protein kinase 13 (Homo sapiens) (UniProt O15264); assay: Selectivity interaction (KinomeScan (DiscoverX)) EUB0000092b MAPK13; settings: at 10 µM
T2 sequence (whole entry): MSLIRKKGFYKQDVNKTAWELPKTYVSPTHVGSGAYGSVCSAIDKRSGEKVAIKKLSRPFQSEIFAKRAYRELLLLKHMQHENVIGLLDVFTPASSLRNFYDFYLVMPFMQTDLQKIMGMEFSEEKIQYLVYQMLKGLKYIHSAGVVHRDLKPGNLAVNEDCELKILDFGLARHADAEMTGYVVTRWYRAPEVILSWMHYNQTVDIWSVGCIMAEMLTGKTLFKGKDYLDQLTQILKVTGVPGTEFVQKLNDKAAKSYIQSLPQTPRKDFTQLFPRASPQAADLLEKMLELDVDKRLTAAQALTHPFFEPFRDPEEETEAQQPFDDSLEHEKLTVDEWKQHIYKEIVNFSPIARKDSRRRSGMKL

[9] = target: T3, Mitogen-activated protein kinase kinase kinase 7 (Homo sapiens) (UniProt O43318); assay: Selectivity interaction (LanthaScreen Eu Kinase Binding Assay) EUB0001632a MAP3K7; settings: at 10 µM
T3 sequence (whole entry): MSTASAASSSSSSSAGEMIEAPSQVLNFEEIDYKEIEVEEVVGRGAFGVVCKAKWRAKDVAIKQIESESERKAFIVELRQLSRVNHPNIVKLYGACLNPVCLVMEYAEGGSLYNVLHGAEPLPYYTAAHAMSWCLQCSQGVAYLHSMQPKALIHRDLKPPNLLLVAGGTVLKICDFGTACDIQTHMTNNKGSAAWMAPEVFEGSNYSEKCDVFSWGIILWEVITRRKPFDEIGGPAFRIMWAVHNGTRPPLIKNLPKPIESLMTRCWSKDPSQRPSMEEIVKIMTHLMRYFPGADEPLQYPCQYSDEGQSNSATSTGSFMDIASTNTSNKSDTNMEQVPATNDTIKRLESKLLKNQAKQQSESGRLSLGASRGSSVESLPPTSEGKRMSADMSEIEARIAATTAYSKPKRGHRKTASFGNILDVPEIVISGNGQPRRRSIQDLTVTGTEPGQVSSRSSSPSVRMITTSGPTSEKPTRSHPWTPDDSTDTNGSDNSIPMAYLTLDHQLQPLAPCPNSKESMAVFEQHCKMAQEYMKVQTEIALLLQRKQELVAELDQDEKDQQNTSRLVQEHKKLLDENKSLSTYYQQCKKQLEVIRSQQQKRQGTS

[10] = test system: Proto-oncogene tyrosine-protein kinase receptor Ret (Homo sapiens), P07949 [S891A]; assay: (§1) Selectivity interaction (Kinase panel (Z-LYTE Assay)) EUB0001632a RET; settings: at 10 µM
Proto-oncogene tyrosine-protein kinase receptor Ret (Homo sapiens), P07949 [S891A], sequence (P07949 whole entry S891A): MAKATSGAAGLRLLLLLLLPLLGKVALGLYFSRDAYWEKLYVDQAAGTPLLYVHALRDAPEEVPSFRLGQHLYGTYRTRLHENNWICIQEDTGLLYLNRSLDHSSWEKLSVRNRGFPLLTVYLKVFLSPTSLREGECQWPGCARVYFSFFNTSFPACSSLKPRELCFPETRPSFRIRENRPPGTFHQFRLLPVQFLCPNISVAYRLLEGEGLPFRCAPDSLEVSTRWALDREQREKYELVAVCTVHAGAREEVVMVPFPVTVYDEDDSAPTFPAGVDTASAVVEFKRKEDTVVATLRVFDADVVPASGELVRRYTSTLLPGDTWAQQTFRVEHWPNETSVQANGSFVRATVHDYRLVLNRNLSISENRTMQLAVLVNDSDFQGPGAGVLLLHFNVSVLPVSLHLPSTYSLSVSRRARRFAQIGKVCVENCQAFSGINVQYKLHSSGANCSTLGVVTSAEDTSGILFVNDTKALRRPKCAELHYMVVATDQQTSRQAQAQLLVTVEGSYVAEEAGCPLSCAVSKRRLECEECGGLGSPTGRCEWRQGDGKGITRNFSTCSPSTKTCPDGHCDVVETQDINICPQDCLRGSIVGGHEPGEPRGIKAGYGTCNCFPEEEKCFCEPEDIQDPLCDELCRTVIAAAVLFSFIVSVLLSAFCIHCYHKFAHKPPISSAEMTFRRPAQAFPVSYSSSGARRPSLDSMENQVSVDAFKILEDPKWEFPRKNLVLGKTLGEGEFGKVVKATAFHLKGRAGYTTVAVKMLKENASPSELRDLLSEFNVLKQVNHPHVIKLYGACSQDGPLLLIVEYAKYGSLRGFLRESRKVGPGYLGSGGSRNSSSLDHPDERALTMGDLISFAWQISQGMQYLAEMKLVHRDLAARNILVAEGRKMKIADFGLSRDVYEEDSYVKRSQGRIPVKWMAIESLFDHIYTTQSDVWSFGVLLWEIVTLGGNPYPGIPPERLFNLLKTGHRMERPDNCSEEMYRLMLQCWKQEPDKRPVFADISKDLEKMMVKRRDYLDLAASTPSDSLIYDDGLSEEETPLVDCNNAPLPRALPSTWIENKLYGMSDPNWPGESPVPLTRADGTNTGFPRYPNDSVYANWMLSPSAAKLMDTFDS

[11] = test system: Proto-oncogene tyrosine-protein kinase receptor Ret (Homo sapiens), P07949 [V804L]; assay: as §1; settings: at 10 µM
Proto-oncogene tyrosine-protein kinase receptor Ret (Homo sapiens), P07949 [V804L], sequence (P07949 whole entry V804L): as the sequence (P07949 whole entry S891A) above, with V804L, A891S counted along it

[12] = test system: Proto-oncogene tyrosine-protein kinase receptor Ret (Homo sapiens), P07949 [Y791F]; assay: as §1; settings: at 10 µM
[13] = target: Proto-oncogene tyrosine-protein kinase receptor Ret (Homo sapiens, UniProt P07949); assay: as §1; settings: at 10 µM

Compound: CN(C)C/C=C/C(=O)Nc1ccc(C(=O)N2CCCC(Nc3ncc(Cl)c(-c4c[nH]c5ccccc45)n3)C2)cc1 (centres undefined)
% of control [1]: 100%

Compound: O[C@H]1CC[C@H](Nc2ncc3nc(Nc4c(F)cc(F)cc4F)n([C@H]4CCOC4)c3n2)CC1
% of control [2]: 100%

Compound: C=CC(=O)Nc1cc(-n2c(=O)ccc3cnc4ccc(-c5ccc(NS(C)(=O)=O)cc5)cc4c32)ccc1C
% of control ([3]; at 1 µM): 100%
% of control ([3]; at 10 µM): 79%

Compound: COCC(=O)NC/C=C/c1ccc2ncnc(Nc3ccc(Oc4ccc(C)nc4)c(C)c3)c2c1 [CP-724714]
% of control [4]: 100%

% of inhibition [5]: 14%
Compound: Cc1ccc(-c2ccc3c(ccc4sc5c(c43)NC[C@@H](C)NC5=O)n2)cn1

% of inhibition [6]: -8.1%
Compound: CC[C@@H]1[C@H](F)C(=O)N[C@@H]1COc1nccc2cc(C(N)=O)c(OC)cc12 [ZIMLOVISERTIB]

Compound: CCC(=O)N1CCN(c2ccc(-n3c(=O)ccc4cnc5ccc(-c6cnc7ccccc7c6)cc5c43)cc2C(F)(F)F)CC1
% of control [7]: 22%
% of control [8]: 39%

% of inhibition [9]: -112%
% of control [10]: 2.48%
% of control [11]: 6.91%
% of control [12]: 6.92%
% of control [13]: 12%
Compound: Cn1cc(-n2cnc3c(NCc4nc5cc(Cl)c(Cl)cc5[nH]4)nc(N4CCOCC4)nc32)cn1
